Experimental data reported in US9445979B2, “Hair treatment composition containing gambogic acid, ester or amide” (DSM IP ASSETS B.V., priority 2010, dated 2016).

Key:
Type in all cases: cell-based
human hair follicles [1] = assay: Hair shaft elongation, hair cycle progression and toxicity in cultured human anagen VI hair follicles
Description: (§1) Tissue containing human hair follicles in the growth stage (anagen) of the hair cycle were obtained from elective facial surgery interventions. Hair follicles were isolated and maintained in culture according to methods well established in the art (Philpott et al. 1990, J Cell Sci. 97: 463-471). Gambogic amide (GA) was administered to pigmented cultured anagen VI hair follicle every other day over a culture period of 7 days in various concentrations comprised between 10 nano molar and 1 micro molar and compared to a control group without addition of GA.
Hair shaft elongation was measured as a way to assess possible hair growth promoting or inhibiting effects of GA. […] It is therefore concluded from this first observation that the dose range in which GA can be used is between 10 nano molar and 1 micro molar, and that GA can be used as a hair growth promoting or restoring agent.

[2] = tested on: melanocytes in human hair follicles; assay: Immunohistochemical analysis of melanocytes in cultured hair follicles (NKI-beteb, Ki67, Trp2, cKit)
Source text: Number of melanocytes in the hair follicle can be evaluated by standard methods e.g.: immunohistochemical staining of the melanocytes with the pan-melanocyte marker NKI-beteb following by counting the NKI-beteb+ cells.
Differentiation and migration of melanocytes from the hair sheath to the hair matrix can be measured by immunohistochemical staining of c-kit+ melanocytes in the hair follicle, and by assessing their distribution within the hair follicle.
as §1
Immunohistochemical analysis of hair follicle was performed according to standard methods. Immunohistochemical staining of the pan-melanocyte marker NKI-beteb and the proliferation marker Ki67 was used to asses total number of melanocytes in cultured follicles in presence of GA. […] This increase was dose dependent. […]

human hair follicles [3] = assay: Macroscopic analysis of hair follicle pigmentation in cultured anagen hair follicles; conditions: 0.1 to 1 micro molar GA, 7 day culture, versus control group
Description: as §1

CC(C)=CCC[C@]1(C)C=Cc2c(O)c3c(c(CC=C(C)C)c2O1)O[C@]12C(=C[C@@H]4C[C@H]1C(C)(C)O[C@@]2(C/C=C(/C)C(N)=O)C4=O)C3=O [GA, 2-Butenamide, 2-methyl-4-[(1R,3aS,5S,11R,14aS)-3a,4,5,7-tetrahydro-8-hydroxy-3,3,11-trimethyl-13-(3-methyl-2-buten-1-yl)-11-(4-methyl-3-penten-1-yl)-7,15-dioxo-1,5-methano-1H,3H,11H-furo[3,4-g]pyrano[3,2-b]xanthen-1-yl]-, (2Z)-]
signs of toxicity (human hair follicles [1]; concentrations as high as 1 micro): No signs of toxicity were observed | hair shaft elongation compared to control (human hair follicles [1]; concentrations between 0.1 and 1 micro molar, 7 days culture): increase in hair shaft elongation | hair cycle progression (human hair follicles [1]; with the application of GA, 7 days culture): no hair cycle progression was observed | total number of melanocytes (NKI-beteb and Ki67 staining) ([2]; between 0.1 and 0.5 micro molar, hair follicles that remained in the anagen stage): total number of melanocytes was increased | cKit labeling (marker for migrating, activated early melanocytes) ([2]; hair follicles treated between 0.1 and 1 micro molar GA): most pronouncedly found | hair follicle pigmentation (macroscopic analysis) (human hair follicles [3]): clear and significant improvement of hair follicle pigmentation
